Read-outs that look alike come from different tables or passages of the source.
Legend:
[1] = Plasma and CSF compound exposure in cannulated beagle dogs (LC/MS/MS); type: in vivo; settings: dog, po, male beagle dogs, 1.0 mg/kg p.o.
Protocol: (§1) Several animal models, including mouse, guinea pig, dog, and monkey, may be used to screen for inhibition of beta-secretase activity in vivo following compound treatment. Herein, we conduct central pharmacology studies in a cannulated beagle dog model. In this model, a cohort of male beagle dogs are implanted with a cannula in the lumbar spine region and threaded up towards the cervical spine. This model allows multiple CSF collections throughout a single 48-72 hour study period through a subcutaneous lumbar port attached to the spinal catheter. As long as the cannula remains patent, additional CSF pharmacology studies can be conducted within the same cohort of dogs. Blood samples are processed to obtain plasma, and then plasma and CSF samples are aliquoted to allow determination of test compound and Abeta CSF concentrations.
In this study, six male beagle dogs are dosed p.o. with 1.0 mg/kg Example 1 in a 0.5 M, phosphate buffer (pH=2.0) formulation and blood (0.5, 1, 2, 3, 6, 9, 12, 24, and 48 hours) and CSF (3, 6, 9, 24, and 48 hours) are collected. Plasma and CSF compound concentrations are determined by LC/MS/MS methods. Plasma and CSF are also analyzed for Abeta 1-x. […] Total Abeta peptides (Abeta 1-x) levels are measured by a sandwich ELISA, using monoclonal 266 as a capture antibody and biotinylated 3D6 as reporting antibody. […]

beta-secretase = assay: In vivo inhibition of beta-secretase, cannulated beagle dog model (Abeta 1-x ELISA); settings: male beagle dogs, 1.0 mg/kg p.o.
Protocol: as §1
In this study, six male beagle dogs are dosed p.o. with 1.0 mg/kg Example 1 in a 0.5 M, phosphate buffer (pH=2.0) formulation and blood (0.5, 1, 2, 3, 6, 9, 12, 24, and 48 hours) and CSF (3, 6, 9, 24, and 48 hours) are collected. Plasma and CSF compound concentrations are determined by LC/MS/MS methods. Plasma and CSF are also analyzed for Abeta 1-x. “Abeta 1-x” as used herein refers to the sum of Abeta species that begin with residue 1 and end with a C-terminus greater than residue 28. This detects the majority of Abeta species and is often called “total Abeta”. Total Abeta peptides (Abeta 1-x) levels are measured by a sandwich ELISA, using monoclonal 266 as a capture antibody and biotinylated 3D6 as reporting antibody. (See May, et al., Journal of Neuroscience, 31, 16507-16516 (2011)).

Human BACE1(1-460):Fc = target: T1, Human BACE1(1-460):Fc (Homo sapiens, UniProt P56817); assay: BACE1 FRET Assay; type: biochemical; settings: purified recombinant huBACE1:Fc, FRET substrate based on APP; mean ± standard deviation of the mean, n=12
T1 construct: made in house; host or cells: HEK293 cells, transient transfection; purified from conditioned media by Protein A
Protocol: (§2) To assess selectivity of BACE1 over BACE2, the test compound is evaluated in FRET assays using specific substrates for BACE1 and BACE2 as described below. For in vitro enzymatic and cellular assays, the test compound is prepared in DMSO to make up a 10 mM stock solution. The stock solution is serially diluted in DMSO to obtain a ten-point dilution curve with final compound concentrations ranging from 10 μM to 0.05 nM in a 96-well round-bottom plate before conducting the in vitro enzymatic and whole cell assays.
(§3) Human BACE1 (accession number: AF190725) and human BACE2 (accession number: AF 204944) are cloned from total brain cDNA by RT-PCR. The nucleotide sequences corresponding to amino acid sequences #1 to 460 are inserted into the cDNA encoding human IgG1 (Fc) polypeptide (Vassar et al., Science, 286, 735-742 (1999)). […]
(§4) Conditioned media of HEK293 cells transiently transfected with huBACE1:Fc or huBACE2:Fc cDNA are collected. […] The purity of the final product is assessed by electrophoresis in 4-20% Tris-Glycine SDS-PAGE. […]
Serial dilutions of the test compound are prepared as described above. […] The RFU of the mixture at time 0 is recorded at excitation wavelength 355 nm and emission wavelength 460 nm, after brief mixing on a plate shaker. […] The RFU at the end of incubation is recorded with the same excitation and emission settings used at time 0. […]

human BACE2 (1-460):Fc = target: T2, human BACE2 (1-460):Fc (Homo sapiens, UniProt Q9Y5Z0); assay: BACE2 TMEM27 FRET Assay; type: biochemical
T2 construct: made in house; host or cells: HEK293 cells, transient transfection; purified from conditioned media by Protein A
T2 sequence (Q9Y5Z0 21-460): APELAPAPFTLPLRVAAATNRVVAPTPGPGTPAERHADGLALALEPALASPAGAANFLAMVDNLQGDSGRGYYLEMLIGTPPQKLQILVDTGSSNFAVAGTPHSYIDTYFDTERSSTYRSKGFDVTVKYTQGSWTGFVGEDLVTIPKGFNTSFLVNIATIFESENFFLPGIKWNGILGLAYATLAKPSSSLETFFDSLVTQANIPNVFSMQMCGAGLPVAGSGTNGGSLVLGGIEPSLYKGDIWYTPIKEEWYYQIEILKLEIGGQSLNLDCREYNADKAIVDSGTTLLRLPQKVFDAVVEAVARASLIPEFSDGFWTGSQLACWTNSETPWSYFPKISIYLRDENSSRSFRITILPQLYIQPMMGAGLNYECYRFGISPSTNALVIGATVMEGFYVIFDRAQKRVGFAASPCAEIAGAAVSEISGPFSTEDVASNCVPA
Protocol: as §2, §3, §4
Serial dilutions of test compound are prepared as described above. […] The RFU of the mixture at time 0 is recorded at excitation wavelength 430 nm and emission wavelength 535 nm. […] The RFU at the end of incubation is recorded with the same excitation and emission settings used at time 0. […]

[2] = target: T3, BACE1 activity in SH-SY5YAPP695Wt cells (Homo sapiens, UniProt P56817); assay: SH-SY5YAPP695Wt Whole Cell Assay (Abeta ELISA); type: cell-based; settings: 24 hours incubation, conditioned media, n=4
T3 construct: endogenous in cells; host or cells: SH-SY5Y (ATCC CRL2266) stably expressing human APP695Wt
Protocol: as §2
The routine whole cell assay for the measurement of inhibition of BACE1 activity utilizes the human neuroblastoma cell line SH-SY5Y (ATCC Accession No. CRL2266) stably expressing a human APP695Wt cDNA. Cells are routinely used up to passage number 6 and then discarded.
SH-SY5YAPP695Wt cells are plated in 96 well tissue culture plates at 5.0×10^4 cells/well in 200 μL culture media (50% MEM/EBSS and Ham's F12, 1× each sodium pyruvate, non-essential amino acids and NaHCO3 containing 10% FBS). The following day, media is removed from the cells, fresh media added then incubated at 37° C. for 24 hours in the presence/absence of test compound at the desired concentration range.
At the end of the incubation, conditioned media are analyzed for evidence of beta-secretase activity by analysis of Abeta peptides 1-40 and 1-42 by specific sandwich ELISAs. […]

T3 sequence (P56817 46-501): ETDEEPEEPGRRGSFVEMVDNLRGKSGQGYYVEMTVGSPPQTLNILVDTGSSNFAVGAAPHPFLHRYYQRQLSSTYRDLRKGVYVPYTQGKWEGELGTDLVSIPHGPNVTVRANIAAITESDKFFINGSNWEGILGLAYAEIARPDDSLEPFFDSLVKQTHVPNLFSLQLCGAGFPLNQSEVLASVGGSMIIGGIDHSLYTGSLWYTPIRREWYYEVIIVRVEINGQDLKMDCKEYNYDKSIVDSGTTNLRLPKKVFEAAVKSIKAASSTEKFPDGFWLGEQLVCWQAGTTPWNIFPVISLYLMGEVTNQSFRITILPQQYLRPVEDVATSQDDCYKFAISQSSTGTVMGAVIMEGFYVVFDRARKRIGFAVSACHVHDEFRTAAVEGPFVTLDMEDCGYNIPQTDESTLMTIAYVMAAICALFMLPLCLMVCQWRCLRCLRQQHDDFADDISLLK
T1 sequence (P56817 22-460): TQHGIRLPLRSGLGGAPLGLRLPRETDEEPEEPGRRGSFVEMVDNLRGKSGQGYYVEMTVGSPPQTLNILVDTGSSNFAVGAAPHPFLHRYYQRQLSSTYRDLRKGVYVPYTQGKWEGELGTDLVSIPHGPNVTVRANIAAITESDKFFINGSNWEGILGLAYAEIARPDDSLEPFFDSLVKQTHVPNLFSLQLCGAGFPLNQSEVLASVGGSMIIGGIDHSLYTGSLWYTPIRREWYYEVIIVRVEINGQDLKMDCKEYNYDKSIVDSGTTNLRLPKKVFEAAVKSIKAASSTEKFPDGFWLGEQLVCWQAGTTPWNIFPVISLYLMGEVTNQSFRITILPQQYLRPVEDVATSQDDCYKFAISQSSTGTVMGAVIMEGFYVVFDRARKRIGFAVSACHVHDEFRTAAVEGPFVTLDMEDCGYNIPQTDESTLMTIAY

CC(F)(F)[C@H]1OC[C@]2(c3cc(NC(=O)c4ccc(C(F)(F)F)cn4)ccc3F)N=C(N)OC[C@H]12 [Example 1, N-[3-[(4aR,5S,7aS)-2-Amino-5-(1,1-difluoroethyl)-4,4a,5,7-tetrahydrofuro[3,4-d][1,3]oxazin-7a-yl]-4-fluoro-phenyl]-5-(trifluoromethyl)pyridine-2-carboxamide]
Kp ([1]; CSF / free plasma, free fraction by equilibrium dialysis, read-out: ratio of CSF AUC to free plasma AUC): 0.17 | AUC ([1]; plasma, read-out: total plasma AUC exposure): 7.96 µM·h | reduction of CSF Abeta 1-x levels relative to baseline (beta-secretase; 24 hours): approximately 65% | reduction in plasma levels of Abeta 1-x at nadir (beta-secretase; 48 hour post-dosing period): up to 80% | reduction of CSF Abeta 1-x levels relative to baseline (beta-secretase; 48 hours): ~55% | IC50 (Human BACE1(1-460):Fc): 11.9 nM | IC50 (human BACE2 (1-460):Fc; huBACE2:Fc, TMEM27 LucY FRET substrate, mean ± standard deviation of the mean, n=6): 602 nM | BACE1 selectivity over BACE2 (BACE2 IC50 / BACE1 IC50) (human BACE2 (1-460):Fc; selectivity for BACE1 over BACE2): approximately 50 fold | IC50 ([2]; read-out: IC50 for SH-SY5YAPP695Wt A-beta (1-40) ELISA): 1.03 nM | IC50 ([2]; read-out: IC50 for SH-SY5YAPP695Wt A-beta (1-42) ELISA): 1.28 nM

Reference: patent US20190106434A1, “N-[3-[2-AMINO-5-(1,1-DIFLUOROETHYL)-4,4A,5,7-TETRAHYDROFURO[3,4-D][1,3]OXAZIN-7A-YL]-4-FLUORO-PHENYL-5-(TRIFLUOROMETHYL)PYRIDINE-2-CARBOXAMIDE AND ITS (4AR,5S,7AS) ISOMER AS A SELECTIVE BACE1 INHIBITOR FOR TREATING E.G. ALZHEIMER'S DISEASE” (Eli Lilly and Company, priority 2016, published 2019)
